Assay [1] deals with T1, D816V Kit (Homo sapiens, UniProt P10721, D816V).
T1 construct: purchased Carna Bioscience 08-156
As to the kind of experiment: Kit D816V assay at Km (Caliper electrophoretic mobility shift). Particulars: D816V Kit 0.5 nM, 15 uM ATP (Km), 1 uM Srctide, 25 C, 90 minutes; read-out: Biochemical Activity D816V IC50. How it is done:
In order to assess the activity of chemical compounds against the relevant kinase of interest, the Caliper LifeSciences electrophoretic mobility shift technology platform is used. Fluorescently labeled substrate peptide is incubated in the presence of kinase and ATP so that a […] proportion of the peptide is phosphorylated. At the end of the reaction, the mix of phosphorylated (product) and non-phosphorylated (substrate) peptides are passed through the microfluidic system of the Caliper EZ Reader 2, under an applied potential difference. The presence of the phosphate group on the product peptide provides a difference in mass and charge between those of the substrate peptide, resulting in a separation of the substrate and product pools in the sample. As the pools pass a LEDS within the instrument, these pools are detected and resolved as separate peaks. The ratio between these peaks therefore reflects the activity of the chemical matter at that concentration in that well, under those conditions.
Kit D816V assay at Km: In each well of a 384-well plate, 0.04 ng/ul (0.5 nM) of D816V Kit (Carna Bioscience 08-156) was incubated in a total of 12.5 ul of buffer (100 mM HEPES pH 7.5, 0.015% Brij 35, 10 mM MgCl2, 1 mM DTT) with 1 uM Srctide (5-FAM-GEEPLYWSFPAKKK-NH2) and 15 uM ATP at 25 C for 90 minutes in the presence or absence of a dosed concentration series of compound (1% DMSO final concentration). The reaction was stopped by the addition of 70 ul of Stop buffer (100 mM HEPES pH 7.5, 0.015% Brij 35, 35 mM EDTA and 0.2% of Coating Reagent 3 (Caliper Lifesciences)). The plate was then read on a Caliper EZReader 2 (protocol settings:—1.9 psi, upstream voltage—700, downstream voltage—3000, post sample sip 35s). Data was normalized to 0% and 100% inhibition controls and the IC50 or EC50 calculated using a 4-parameter fit using GraphPad Prism.

Assay [2] concerns the target T2, Kit D816V in HMC1.2 cells (Homo sapiens, UniProt P10721, D816V/V560G).
T2 construct: endogenous in cells; host or cells: HMC1.2
The experiment in a line: HMC1.2 autophosphorylation assay (Kit autophosphorylation at tyrosine 719, AlphaLISA). In kind it is cell-based. Particulars: HMC1.2 mast cell leukemia cells (Kit V560G and D816V), phospho-Y719 c-Kit, 90 minutes; read-out: Cellular Activity IC50. How it is done: 10,000 HMC1.2 cells were incubated in 22 ul culture media (phenol-red free IMDM, no serum) in each well of a 384-well plate and serum starved overnight in a tissue culture incubator (5% CO2, 37° C.). A 10-point dose concentration series of compound (25 uM-95.4 pM) were then added to the cells in a volume of 3.1 ul to each well (0.25% DMSO final concentration). After 90 minutes, 6 ul of 5× AlphaLISA Lysis Buffer (Perkin Elmer) supplemented with a protease and phosphatase inhibitor cocktail (Cell Signaling Technologies) was added to each well and shaken at 450 rpm for 15 minutes at 4° C. 10 ul of phospho-Y719 c-Kit and total c-Kit antibodies (15 nM final concentration, Cell Signaling Technologies) and 50 ug/ml AlphaLISA rabbit acceptor beads (Perkin Elmer) were added to each well and shaken at 300 rpm at room temperature for 2 hours. 10 ul of 100 ug/ml streptavidin donor beads (Perkin Elmer) were added to each well, blocked from light with aluminum adhesive and shaken at 300 rpm at room temperature for 2 hours. Fluorescence signal was obtained on Envision (Perkin Elmer) by AlphaScreen 384 well HTS protocol. Data was normalized to 0% and 100% inhibition controls and the IC50 was calculated using Four Parameter Logistic IC50 curve fitting.
This cell line contains Kit mutated at positions V560G and D816V resulting in constitutive activation of the kinase. The following compounds were tested in an assay to measure direct inhibition of Kit D816V kinase activity by assaying Kit autophosphorylation at tyrosine 719 on the Kit protein.
Background: In Alpha technology, singlet oxygen from a donor bead excites a nearby acceptor bead.

pIC50: −log10 of the molar value.

The term pIC50 denotes the negative decadic logarithm of the IC50, by convention in mol/L.

T1 sequence (P10721 26-976 D816V): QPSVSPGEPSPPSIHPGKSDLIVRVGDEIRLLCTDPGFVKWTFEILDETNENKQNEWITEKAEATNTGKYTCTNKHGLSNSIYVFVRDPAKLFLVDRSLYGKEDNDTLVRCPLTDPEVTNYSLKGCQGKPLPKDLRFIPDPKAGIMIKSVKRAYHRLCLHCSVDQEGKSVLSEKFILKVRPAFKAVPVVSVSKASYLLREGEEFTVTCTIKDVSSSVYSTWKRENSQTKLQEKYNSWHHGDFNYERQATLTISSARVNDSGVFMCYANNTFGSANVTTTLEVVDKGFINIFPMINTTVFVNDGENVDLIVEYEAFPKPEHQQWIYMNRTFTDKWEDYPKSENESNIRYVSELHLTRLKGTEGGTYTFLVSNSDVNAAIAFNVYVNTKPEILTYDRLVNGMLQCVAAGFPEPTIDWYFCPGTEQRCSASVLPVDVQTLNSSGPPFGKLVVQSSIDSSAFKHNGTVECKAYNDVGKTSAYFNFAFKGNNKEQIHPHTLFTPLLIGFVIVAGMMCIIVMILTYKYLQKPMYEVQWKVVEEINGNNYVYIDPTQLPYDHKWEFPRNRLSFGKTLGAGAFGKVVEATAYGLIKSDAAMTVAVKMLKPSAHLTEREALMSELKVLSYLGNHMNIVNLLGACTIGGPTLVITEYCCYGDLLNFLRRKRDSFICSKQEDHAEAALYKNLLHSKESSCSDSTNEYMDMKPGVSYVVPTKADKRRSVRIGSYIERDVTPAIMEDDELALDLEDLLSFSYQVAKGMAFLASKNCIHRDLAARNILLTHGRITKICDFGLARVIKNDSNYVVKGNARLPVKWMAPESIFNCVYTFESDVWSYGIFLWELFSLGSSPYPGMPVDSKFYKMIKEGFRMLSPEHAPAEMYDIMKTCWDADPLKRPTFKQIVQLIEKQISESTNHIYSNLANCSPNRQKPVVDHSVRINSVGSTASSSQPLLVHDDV
T2 sequence (P10721 26-976 V560G/D816V): as the sequence (P10721 26-976 D816V) above, with V535G counted along it

Regarding `Cn1cc(-c2cc3c(-c4ccc(NC(=O)[C@@H](O)c5ccc(Cl)cc5)cc4)ncnn3c2)cn1` [Compound 34, 2-(4-chlorophenyl)-2-hydroxy-N-(4-(6-(1-methyl-1H-pyrazol-4-yl)pyrrolo[1,2-f][1,2,4]triazin-4-yl)phenyl)acetamide], the figures for the pIC50 in assay [1] and in assay [2] were 8.00 to 9.00 and 7.00 to 8.00, respectively.
Regarding `Cn1cc(-c2cc3c(-c4ccc(NC(=O)Cc5ccccn5)cc4)ncnn3c2)cn1` [Compound 5], the pIC50 in assay [1] is 7.00 to 8.00; in assay [2] it was 5.00 to 6.00.
In the case of `Cn1cc(-c2cc3c(-c4ccc(NC(=O)Cc5ccc(Cl)cc5)cc4)ncnn3c2)cn1` [Compound 17], the figures for the pIC50 in assay [1] and in assay [2] were 8.00 to 9.00 and 7.00 to 8.00, respectively.
As for `Cn1cc(-c2cc3c(-c4ccc(NS(=O)(=O)c5ccccc5)cc4)ncnn3c2)cn1` [Compound 13], the pIC50 in assay [1] is 8.00 to 9.00; in assay [2] it was 6.00 to 7.00.
Regarding `Cn1cc(-c2cc3c(-c4ccc(NC(=O)Cc5c[nH]c6ccccc56)cc4)ncnn3c2)cn1` [Compound 23], the values for the pIC50 in assay [1] and in assay [2] were 8.00 to 9.00 and 7.00 to 8.00, respectively.
In the same order, the values of `Cn1cc(-c2cc3c(-c4ccc(NS(=O)(=O)c5ccc(Cl)cc5)c(F)c4)ncnn3c2)cn1` [Compound 57] are 7.00 to 8.00 and 5.00 to 6.00.
In the same order, the values of `O=S(=O)(Nc1ccc(-c2ncnn3cc(-c4ccc(F)cc4)cc23)cc1)c1ccc(Cl)cc1` [Compound 55] are under 7.00 and 5.00 to 6.00.
Take `Cn1cc(-c2cc3c(-c4ccc(NC(=O)Cc5ccccc5Cl)cc4)ncnn3c2)cn1` [Compound 19]: the pIC50 in assay [1] is 8.00 to 9.00; in assay [2], 6.00 to 7.00.
With `Cc1ccc(S(=O)(=O)Nc2ccc(-c3ncnn4cc(-c5cnn(C)c5)cc34)cc2)cc1` [Compound 22], the pIC50 is 8.00 to 9.00 in assay [1] and 7.00 to 8.00 in assay [2].
The like results for `O=C(Cc1ccc(Cl)cc1)Nc1ccc(-c2ncnn3cc(-c4ccc(F)cc4)cc23)cc1` [Compound 27] were, in that order, 7.00 to 8.00 and 5.00 to 6.00.
The like results for `CC(C)(C)Oc1ccc(-c2cc3c(-c4ccc(NC(=O)Cc5ccc(Cl)cc5)cc4)ncnn3c2)cc1` [Compound 61] were, in that order, 7.00 to 8.00 and 5.00 to 6.00.
Take `CC[C@@H](C(=O)Nc1ccc(-c2ncnn3cc(-c4cnn(C)c4)cc23)cc1)c1ccc(Cl)cc1` [Compound 42]: the pIC50 in assay [1] is 8.00 to 9.00; in assay [2], over 8.00.
For the compound `C[C@H](C(=O)Nc1ccc(-c2ncnn3cc(-c4cnn(C)c4)cc23)cc1)c1ccc(Cl)cc1` [Compound 30], the pIC50 is 7.00 to 8.00 in assay [1] and 6.00 to 7.00 in assay [2].
The like results for `Cn1cc(-c2cc3c(-c4ccc(NC(=O)[C@](C)(O)c5ccc(Cl)cc5)cc4)ncnn3c2)cn1` [Compound 50, 2-(4-chlorophenyl)-2-hydroxy-N-(4-(6-(1-methyl-1H-pyrazol-4-yl)pyrrolo[1,2-f][1,2,4]triazin-4-yl)phenyl)propanamide] were, in that order, 7.00 to 8.00 and 6.00 to 7.00.
Consider `Cn1cc(-c2cc3c(-c4ccc(NS(=O)(=O)Cc5ccc(C#N)cc5)cc4)ncnn3c2)cn1` [Compound 40], for which the pIC50 is over 9.00 in assay [1] and 7.00 to 8.00 in assay [2].
For `Cn1cc(-c2cc3c(-c4ccc(NC(=O)C(C)(O)c5ccc(Cl)cc5)cc4)ncnn3c2)cn1` (stereo not shown) [Compound 51], the pIC50 in assay [1] is 8.00 to 9.00; in assay [2], 7.00 to 8.00.
As for `CC(C)S(=O)(=O)Nc1ccc(-c2ncnn3cc(-c4cnn(C)c4)cc23)cc1` [Compound 2], the pIC50 in assay [1] is 7.00 to 8.00; in assay [2], under 5.00.
Consider `Cn1cc(-c2cc3c(-c4ccc(NC(=O)[C@@](C)(N)c5ccc(Cl)cc5)cc4)ncnn3c2)cn1` [Compound 45, 2-amino-2-(4-chlorophenyl)-N-(4-(6-(1-methyl-1H-pyrazol-4-yl)pyrrolo[1,2-f][1,2,4]triazin-4-yl)phenyl)propanamide], for which the negative logarithm of the IC50 (pIC50) in assay [1] is 8.00 to 9.00; in assay [2] it was over 8.00.
Regarding `Cn1cc(-c2cc3c(-c4ccc(NC(=O)[C@H](O)c5ccc(Cl)cc5)cc4)ncnn3c2)cn1` [Compound 32, 2-(4-chlorophenyl)-2-hydroxy-N-(4-(6-(1-methyl-1H-pyrazol-4-yl)pyrrolo[1,2-f][1,2,4]triazin-4-yl)phenyl)acetamide], the pIC50 in assay [1] is over 9.00; in assay [2], over 8.00.
On to `COC(C(=O)Nc1ccc(-c2ncnn3cc(-c4cnn(C)c4)cc23)cc1)c1ccc(Cl)cc1` (stereo not shown) [Compound 52], for which the figures for the pIC50 in assay [1] and in assay [2] were 8.00 to 9.00 and 7.00 to 8.00, respectively.
`CCC(C(=O)Nc1ccc(-c2ncnn3cc(-c4cnn(C)c4)cc23)cc1)c1ccc(Cl)cc1` (stereo not shown) [Compound 43]: the pIC50 in assay [1] was 8.00 to 9.00; in assay [2], 7.00 to 8.00.
With `CS(=O)(=O)c1ccc(-c2cc3c(-c4ccc(NS(=O)(=O)c5ccc(Cl)cc5)cc4)ncnn3c2)cc1` [Compound 65], the values for the pIC50 in assay [1] and in assay [2] were 7.00 to 8.00 and 6.00 to 7.00, respectively.
Consider `CO[C@@H](C(=O)Nc1ccc(-c2ncnn3cc(-c4cnn(C)c4)cc23)cc1)c1ccc(Cl)cc1` [Compound 48], for which the pIC50 is over 9.00 in assay [1] and over 8.00 in assay [2].
For the compound `Cn1cc(-c2cc3c(-c4ccc(NC(=O)Cc5ccc(F)cc5)cc4)ncnn3c2)cn1` [Compound 11], the values for the pIC50 in assay [1] and in assay [2] were 8.00 to 9.00 and 7.00 to 8.00, respectively.
The like results for `Cn1cc(-c2cc3c(-c4ccc(NC(=O)C(C)(C)c5ccc(Cl)cc5)cc4)ncnn3c2)cn1` [Compound 41, 2-(4-chlorophenyl)-2-methyl-N-(4-(6-(1-methyl-1H-pyrazol-4-yl)pyrrolo[1,2-f][1,2,4]triazin-4-yl)phenyl)propanamide] were, in that order, over 9.00 and 7.00 to 8.00.
Turning to `CC(C(=O)Nc1ccc(-c2ncnn3cc(-c4cnn(C)c4)cc23)cc1)c1ccc(Cl)cc1` (stereo not shown) [Compound 29], the pIC50 in assay [1] is 8.00 to 9.00; in assay [2] it was over 8.00.
With `CCC(=O)N1CC=C(c2cc3c(-c4ccc(NS(=O)(=O)c5ccc(Cl)cc5)cc4)ncnn3c2)CC1` [Compound 63], the negative-log IC50 (pIC50) in assay [1] was over 9.00; in assay [2] it was 7.00 to 8.00.
`CC(C)(O)Cn1cc(-c2cc3c(-c4ccc(NC(=O)Cc5ccc(Cl)cc5)cc4)ncnn3c2)cn1` [Compound 60]: the values for the pIC50 in assay [1] and in assay [2] were 8.00 to 9.00 and 7.00 to 8.00, respectively.
In the case of `Cn1cc(-c2cc3c(-c4ccc(NS(=O)(=O)c5ccc(Cl)cc5)cc4)ncnn3c2)cn1` [Compound 36], the figures for the pIC50 in assay [1] and in assay [2] were over 9.00 and 7.00 to 8.00, respectively.
As for `Cn1cc(-c2cc3c(-c4ccc(NC(=O)NCc5ccccc5)cc4)ncnn3c2)cn1` [Compound 9, 1-benzyl-3-(4-(6-(1-methyl-1H-pyrazol-4-yl)pyrrolo[1,2-f][1,2,4]triazin-4-yl)phenyl)urea], the pIC50 in assay [1] was 7.00 to 8.00; in assay [2], 6.00 to 7.00.
The like results for `Cn1cc(-c2cc3c(-c4ccc(NS(C)(=O)=O)cc4)ncnn3c2)cn1` [Compound 1] were, in that order, 8.00 to 9.00 and 5.00 to 6.00.
`CN(C)C(=O)c1ccc(-c2cc3c(-c4ccc(NS(C)(=O)=O)cc4)ncnn3c2)cc1` [Compound 14]: the pIC50 in assay [1] is 8.00 to 9.00; in assay [2], 6.00 to 7.00.
